Laboratory results taken from patent publication US12139503B2, “Borylated amino acid compositions for use in boron neutron capture therapy and methods thereof” (TAE Life Sciences, priority 2020, dated 2024).
Like-named read-outs stand apart in the source and are kept apart here.

Experiments:
LAT-1 = target: T1, LAT-1 (Homo sapiens, UniProt Q01650); assay: LAT-1 mediated competition studies, boron uptake in FaDu cells; type: cell-based; conditions: HBSS, 2 hours, 37° C.
T1 construct: host or cells: FaDu human nasopharyngeal carcinoma cells
Text: (§1) The FaDu cell line is a human nasopharyngeal carcinoma cell line. The cell line was obtained from the American Type Culture Collection (“ATCC”), located at 10801 University Boulevard Manassas, VA 20110-2209 USA in 2019. It has ATCC designation of HTB-43™ and lot number 70014320. FaDu cells are propagated in DMEM culture medium supplemented with 10% fetal bovine serum with routine passage by trypsinization and reseeding. The cell line is cryopreserved in liquid nitrogen.
(§2) Additionally, boron measurement was performed by ICP OES. on an Agilent 5110 ICP-OES. The data was analyzed using Agilent's ICP Expert Software, version 7.4.2.10790. Boron was measured axially at the 249.772 nm wavelength and the internal standard Beryllium was measured axially at the 313.042 nm wavelength. Beryllium internal standard was spiked into the solution at 1:5 the flowrate before introduction to the spray chamber via a T-connector. Finally, A standard curve using 1000, 100, 10, 1 and 0 ppb of boron was used to calculate the concentration of boron in each sample.
It has been shown that the system L transporter (LAT-1) mediates the transport of L-amino acids into cells and plays a major role in the uptake of BPA in BPA-based BNCT (WONGTHAI, et. al. Cancer Sci Vol. 106, pg. 279-286, 2015). To assess whether TLS00192 is transported via LAT-1 dependent mechanism we interrogated its ability to be outcompeted by the LAT1 substrate L-Phe FaDu cells were incubated in HBSS medium for two (2) hours at 37° C. with 0.5 mM of either TLS00192 or BPA-fructose in the absence (Subset A) or presence of increasing concentrations of competitor Phe (Subset B), L-system antagonist BCH (Subset C) or LAT-1 specific inhibitor JPH203 (Subset D). The cells were harvested, and the amount of each boronated cell associated compound was determined by ICP OES. The IC50s for the respective inhibitor on each compound is also indicated. BPA was used as a positive control for LAT-1-mediated uptake.

FaDu cells [1] = assay: Cellular retention of TLS00192 and BPA-fructose in FaDu cells; type: cell-based, human; conditions: sixteen (16) hours after initial 2 hour incubation
Text: as §1, §2
Subsequently, to determine whether the efflux mediated by either LAT1 or LAT2 or other transporters is equal for BPA-fructose relative to TLS00192 in cellular retention tests in FaDu cells. […] Data is expressed as % residual boron content of time zero amount.

FaDu cells [2] = assay: Boron uptake of TLS00190 and TLS00178 in FaDu cells; type: cell-based, human; conditions: two (2) hour incubation
Text: as §1
as §2, with “Finally, A standard curve using 1000, 100, 10, 1 and 0 ppb of boron was used to calculate the concentration of boron in each sample.” left out
The efficiency of boron uptake of TLS00190 and TLS00178 was determined using FaDu cells. Following a two (2) hour incubation, cells were harvested and suspended in ice cold PBS and a portion was lysed in RIPA buffer and protein content determined by BCA assay. […] After two (2) hours of incubation the amount of the compounds taken up was determined based on the boron measurements.

FaDu cells [3] = assay: Cellular retention of TLS00190, TLS00178 and BPA-Fructose in FaDu cells; type: cell-based, human
Protocol: Subsequently, to determine whether the efflux mediated by either LAT1 or LAT2 or other transporters is equal for BPA-fructose relative to TLS00192 in cellular retention tests in FaDu cells. The “time zero” sample was immediately harvested following an initial two (2) hour incubation with the compounds. Cells were then harvested at indicated times and subjected to lysis, boron measurement, and protein content. Data is expressed as % residual boron content of time zero amount. In addition, the retention of TLS00190 and TLS00178 following initial 2 hour uptake compared to BPA-Fructose was also studied in FaDu cells.

[4] = tested on: FaDu nasopharnygeal squamous carcinoma cells; assay: Kinetic parameters of boron uptake in FaDu cells (ICP-OES); type: cell-based, human; conditions: Michaelis-Menton non-linear regression
Text: To investigate the ability of TLS00192 to deliver boron to FaDu nasopharnygeal squamous carcinoma cells, we interrogated a range of concentrations bracketing what is hypothsized to be physiologically relevant amounts for boronophenylalanine (BPA), currently the most widely studied boron drug in BNCT clinical practice.
The FaDu cell line is a human nasopharyngeal carcinoma cell line. The cell line was obtained from the American Type Culture Collection (“ATCC”), located at 10801 University Boulevard Manassas, VA 20110-2209 USA in 2019. It has ATCC designation of HTB-43™ and lot number 70014320. […]
Additionally, boron measurement was performed by ICP OES. on an Agilent 5110 ICP-OES. The data was analyzed using Agilent's ICP Expert Software, version 7.4.2.10790. Boron was measured axially at the 249.772 nm wavelength and the internal standard Beryllium was measured axially at the 313.042 nm wavelength. […]
To determine the kinetic parameters of TLS00192, Boron compounds were added to FaDu cells at the final concentration of 2.5 mM in HBSS and the cells were incubated at 37° C., in a humidified 5% CO2 atmosphere for two (2) hrs with shaking. Following two (2) hour incubation, cells were harvested and suspended in ice cold PBS and lysed in RIPA buffer and protein content determined by BCA assay. […] Results were expressed as ng boron/per mg cell protein/per minute. […]

intracranial tumor = conditions: BNCT with beam directed to surgically exposed intracranial tumor; cited from earlier work
[5] = 0.5 mM BPA-fructose as substrate, read-out: IC50 of competitor on boron uptake of BPA-Fructose
[6] = 0.5 mM TLS00192 as substrate, read-out: IC50 of competitor on boron uptake of TLS00192
[7] = twenty (20) hrs after initial 2 hour uptake

T1 sequence (Q01650 whole entry): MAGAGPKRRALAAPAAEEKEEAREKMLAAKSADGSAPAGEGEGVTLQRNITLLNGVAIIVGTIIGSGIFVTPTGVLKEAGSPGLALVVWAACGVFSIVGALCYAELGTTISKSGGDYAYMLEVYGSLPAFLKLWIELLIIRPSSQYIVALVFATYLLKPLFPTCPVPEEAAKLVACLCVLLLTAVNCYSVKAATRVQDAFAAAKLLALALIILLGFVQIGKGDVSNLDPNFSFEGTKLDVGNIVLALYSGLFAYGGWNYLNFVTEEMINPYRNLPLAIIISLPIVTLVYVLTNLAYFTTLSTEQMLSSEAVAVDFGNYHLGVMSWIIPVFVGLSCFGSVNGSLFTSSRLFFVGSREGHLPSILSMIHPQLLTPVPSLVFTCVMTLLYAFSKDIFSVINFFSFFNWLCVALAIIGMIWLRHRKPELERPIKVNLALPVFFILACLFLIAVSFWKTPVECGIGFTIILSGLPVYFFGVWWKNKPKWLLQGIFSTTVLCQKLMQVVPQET
T1 sequence (P08195 102-630 partner): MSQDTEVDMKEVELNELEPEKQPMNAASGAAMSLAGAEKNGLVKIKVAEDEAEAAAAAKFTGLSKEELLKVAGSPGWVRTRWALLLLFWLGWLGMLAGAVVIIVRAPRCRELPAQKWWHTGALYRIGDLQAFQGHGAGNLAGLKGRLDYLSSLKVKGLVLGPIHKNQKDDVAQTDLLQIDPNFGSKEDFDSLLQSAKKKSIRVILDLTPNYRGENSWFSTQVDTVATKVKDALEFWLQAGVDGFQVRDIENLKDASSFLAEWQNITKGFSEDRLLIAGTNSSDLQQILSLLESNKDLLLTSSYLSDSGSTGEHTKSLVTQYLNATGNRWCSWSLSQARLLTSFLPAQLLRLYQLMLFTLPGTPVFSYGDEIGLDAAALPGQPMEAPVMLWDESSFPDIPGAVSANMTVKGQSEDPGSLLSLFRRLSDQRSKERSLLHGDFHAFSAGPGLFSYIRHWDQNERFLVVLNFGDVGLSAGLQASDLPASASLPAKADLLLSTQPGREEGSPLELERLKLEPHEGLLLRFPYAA

NC1(C(=O)O)CC2CCC1C2 (stereo not shown) [BCH, 2-aminobicyclo-(2,2,1)-heptane-2-carboxylic acid]
IC50 (LAT-1; [5]): 140 µM
IC50 (LAT-1; [6]): 800 µM

N[C@@H](Cc1ccc(B(O)O)cc1)C(=O)O [BPA, 4-Borono-L-phenylalanine]
% residual boron content of time zero amount (FaDu cells [1]): approximately 10%

Nc1cc(COc2c(Cl)cc(C[C@H](N)C(=O)O)cc2Cl)c2oc(-c3ccccc3)nc2c1 [JPH203]
IC50 (LAT-1; 0.5 mM BPA-fructose as substrate, read-out: IC50 of inhibitor on LAT1-mediated uptake of BPA): 0.78 µM
IC50 (LAT-1; 0.5 mM TLS00192 as substrate, read-out: IC50 of inhibitor on LAT1-mediated uptake of TLS00192): 0.19 µM

N[C@@H](Cc1ccccc1)C(=O)O [L-Phe, phenylalanine]
IC50 (LAT-1; [5]): 40 µM
IC50 (LAT-1; [6]): 430 µM

CNC(=O)[C@@H](N)Cc1c[nH]cn1 [TLS00178]
boron uptake (ng boron per mg protein), result in words (FaDu cells [2]): retain the ability to be transported into FaDu cancer cells
retention, cellular level remaining (FaDu cells [3]; [7]): 57%

COCCOCCOc1ccc(C[C@H](N)C(=O)O)cc1 [TLS00190]
boron uptake (ng boron per mg protein), result in words (FaDu cells [2]): retain the ability to be transported into FaDu cancer cells
retention, cellular level remaining (FaDu cells [3]; [7]): 43%
retention, cellular level remaining (FaDu cells [3]; two (2) hours after initial 2 hour uptake): 14%

N[C@@H](Cc1ccc(O)c(B(O)O)c1)C(=O)O [TLS00192]
Km ([4]; 2 hr incubation in HBSS at 37° C.): 1970 µM
apparent Vmax ([4]; 2 hr incubation): 15.87 ng boron mg^−1 min^−1
% residual boron content of time zero amount (FaDu cells [1]): greater than 40%

undecahydrododecaborane thiol [BSH]
5-year survival rate (intracranial tumor): 58%
